Measured values taken from patent US4332794A, “6"-Deoxydibekacin, 4",6"-dideoxydibekacin and 1-N-aminoacyl derivatives thereof, and the production of these new compounds” (Zaidan Hojin Biseibutsu Kagaku Kenkyu Kai, priority 1979, dated 1982).
In brackets after ≈: the same amount, converted by molar mass. Read-outs that look alike come from different tables or passages of the source.

Experiments:
[1] = system: Pseudomonas aeruginosa B-13; experiment: MIC, serial dilution on nutrient agar; format: cell-based
[2] = system: Pseudomonas aeruginosa H11; experiment: MIC, serial dilution on nutrient agar; format: cell-based
[3] = system: Escherichia coli K-12 1410 R81; experiment: MIC, serial dilution on nutrient agar; format: cell-based; conditions: K121410R81, 18 h
[4] = system: Klebsiella pneumoniae 22 #3038; experiment: MIC, serial dilution on nutrient agar; format: cell-based
[5] = system: Bacillus subtilis NRRL B-558; experiment: MIC, serial dilution on nutrient agar; format: cell-based; conditions: NRRLB558, 37° C., 18 hours
[6] = system: Shigella dysenteriae JS11910; experiment: MIC, serial dilution on nutrient agar; format: cell-based; conditions: JS11910, 18 h
Sarcina lutea PCI 1001 = experiment: MIC, serial dilution on nutrient agar; format: cell-based; conditions: Micrococcus luteus
[7] = system: Mycobacterium smegmatis ATCC 607; experiment: MIC, serial dilution on nutrient agar; format: cell-based; conditions: Mycolicibacterium smegmatis
Proteus rettgeri GN466 = experiment: MIC, serial dilution on nutrient agar; format: cell-based; conditions: Providencia rettgeri
[8] = system: Bacillus subtilis PCI 219; experiment: MIC, serial dilution on nutrient agar; format: cell-based; conditions: PCI219, 37° C., 18 hours
[9] = system: kanamycin-sensitive bacteria and various kanamycin-resistant bacteria; conditions: prior art; cited from earlier work
[10] = system: Pseudomonas aeruginosa PST1; experiment: MIC, serial dilution on nutrient agar; format: cell-based
[11] = system: Staphylococcus aureus Smith; experiment: MIC, serial dilution on nutrient agar; format: cell-based; conditions: 37° C., 18 hours
Escherichia coli JR255 = experiment: microbe, parasite or virus in culture; format: cell-based; conditions: JR255, 18 h
[12] = system: Corynebacterium bovis 1810; experiment: MIC, serial dilution on nutrient agar; format: cell-based
[13] = system: Bacillus cereus ATCC 10702; experiment: MIC, serial dilution on nutrient agar; format: cell-based
[14] = system: Salmonella enteritidis 1891; experiment: MIC, serial dilution on nutrient agar; format: cell-based; conditions: Salmonella enterica
[15] = system: Pseudomonas aeruginosa A3; experiment: MIC, serial dilution on nutrient agar; format: cell-based
[16] = system: Escherichia coli K-12 LA 290 R64; experiment: MIC, serial dilution on nutrient agar; format: cell-based; conditions: K12LA290R64, 18 h
oto-toxicity = conditions: compounds of this invention
[17] = system: kanamycin-sensitive and resistant bacteria; experiment: antibacterial activity compared to dibekacin; format: cell-based
Experimental: The minimum inhibitory concentrations (mcg/ml) of 6"-deoxydibekacin (abbreviated as 6"-DDKB), 4",6"-dideoxydibekacin (abbreviated as 4",6"-DDKB), 1-N-(L-4-amino-2-hydroxybutyryl)-6"-deoxydibekacin (abbreviated as AHB-6"-DDKB) and 1-N-(L-4-amino-2-hydroxybutyryl)-4",6"-dideoxydibekacin (abbreviated as AHB-4",6"-DDKB) of this invention against various microorganisms were determined according to serial dilution method on a nutrient agar medium at 37° C., the estimation being made after 18 hours incubation. For comparison purpose, the minimum inhibitory concentrations of dibekacin (abbreviated as DKB) were also determined in the same manner as stated above.

[18] = H11, nutrient agar, 37° C., 18 hours, read-out: MIC
[19] = GN466, nutrient agar, 37° C., 18 hours, read-out: MIC
[20] = Corynebacterium bovis, 1810, 18 h
[21] = B13, nutrient agar, 37° C., 18 hours, read-out: MIC
[22] = nutrient agar, 37° C., 18 hours, read-out: MIC
[23] = PCI1001, nutrient agar, 37° C., 18 hours, read-out: MIC
[24] = Corynebacterium bovis, 1810, nutrient agar, 37° C., 18 hours, read-out: MIC
[25] = ATCC10702, nutrient agar, 37° C., 18 hours, read-out: MIC

NC[C@@H]1CC[C@@H](N)[C@@H](O[C@H]2[C@H](O)[C@@H](O[C@H]3O[C@H](CO)[C@@H](O)[C@H](N)[C@H]3O)[C@H](N)C[C@@H]2N)O1 [DKB, 3',4'-dideoxykanamycin B, reference compound]
MIC ([1]; B13, 18 h): 6.25 mg/L (≈ 13.8 µM)
MIC [2, 18]: 12.5 mg/L (≈ 27.7 µM)
MIC [3]: 1.56 mg/L (≈ 3.45 µM)
MIC ([4]; 18 h): 100 mg/L (≈ 221 µM)
MIC [5]: < 0.2 mg/L
MIC [6]: 3.13 mg/L (≈ 6.93 µM)
MIC (Sarcina lutea PCI 1001; PCI1001, 18 h): 100 mg/L (≈ 221 µM)
MIC ([7]; ATCC607, nutrient agar, 37° C., 18 hours, read-out: MIC): 1.56 mg/L (≈ 3.45 µM)
MIC (Proteus rettgeri GN466; [19]): 1.56 mg/L (≈ 3.45 µM)
MIC [8]: < 0.2 mg/L
antibacterial activity [9]: active against the kanamycin-sensitive bacteria and also against various kanamycin-resistant bacteria
MIC ([10]; PST1, 18 h): > 100 mg/L
MIC [11]: < 0.2 mg/L
MIC (Escherichia coli JR255): > 100 mg/L
MIC [12, 20]: 50 mg/L (≈ 111 µM)
MIC ([13]; ATCC10702, 18 h): 3.13 mg/L (≈ 6.93 µM)
MIC ([14]; 18 h): 3.13 mg/L (≈ 6.93 µM)
MIC ([15]; A3, 18 h): 3.13 mg/L (≈ 6.93 µM)
MIC [16]: 25 mg/L (≈ 55.4 µM)

C[C@H]1O[C@H](O[C@@H]2[C@@H](O)[C@H](O[C@H]3O[C@H](CN)CC[C@H]3N)[C@@H](N)C[C@H]2NC(=O)[C@@H](O)CCN)[C@H](O)[C@@H](N)[C@@H]1O [AHB-6"-DDKB, 1-N-(L-4-amino-2-hydroxybutyryl)-6"-deoxydibekacin]
MIC [1, 21]: 25 mg/L (≈ 46.6 µM)
MIC ([2]; H11, 18 h): 50 mg/L (≈ 93.2 µM)
MIC [3]: 1.56 mg/L (≈ 2.91 µM)
MIC [4, 22]: 3.13 mg/L (≈ 5.83 µM)
MIC [5]: < 0.2 mg/L
MIC [6]: 6.25 mg/L (≈ 11.6 µM)
MIC (Sarcina lutea PCI 1001; [23]): 3.13 mg/L (≈ 5.83 µM)
MIC ([7]; ATCC607, 18 h): 0.39 mg/L (≈ 0.727 µM)
oto-toxicity (oto-toxicity): low oto-toxicity
MIC (Proteus rettgeri GN466; [19]): 12.5 mg/L (≈ 23.3 µM)
MIC [8]: < 0.2 mg/L
MIC ([10]; PST1, 18 h): 50 mg/L (≈ 93.2 µM)
MIC [11]: < 0.2 mg/L
MIC (Escherichia coli JR255): 1.56 mg/L (≈ 2.91 µM)
MIC [12, 24]: 3.13 mg/L (≈ 5.83 µM)
MIC [13, 25]: 3.13 mg/L (≈ 5.83 µM)
MIC [14, 22]: 3.13 mg/L (≈ 5.83 µM)
MIC ([15]; A3, nutrient agar, 37° C., 18 hours, read-out: MIC): 3.13 mg/L (≈ 5.83 µM)
MIC [16]: 1.56 mg/L (≈ 2.91 µM)

C[C@@H]1C[C@H](N)[C@@H](O)[C@@H](O[C@@H]2[C@@H](O)[C@H](O[C@H]3O[C@H](CN)CC[C@H]3N)[C@@H](N)C[C@H]2N)O1 [4",6"-DDKB, 4",6"-dideoxydibekacin]
MIC ([1]; B13, 18 h): > 100 mg/L
MIC ([2]; H11, 18 h): 100 mg/L (≈ 238 µM)
MIC [3]: 1.56 mg/L (≈ 3.72 µM)
MIC ([4]; 18 h): 100 mg/L (≈ 238 µM)
MIC [5]: < 0.2 mg/L
MIC [6]: 3.13 mg/L (≈ 7.46 µM)
MIC (Sarcina lutea PCI 1001; PCI1001, 18 h): 50 mg/L (≈ 119 µM)
MIC ([7]; ATCC607, 18 h): 1.56 mg/L (≈ 3.72 µM)
oto-toxicity (oto-toxicity): low oto-toxicity
MIC (Proteus rettgeri GN466; GN466, 18 h): 1.56 mg/L (≈ 3.72 µM)
MIC [8]: < 0.2 mg/L
MIC ([10]; PST1, 18 h): > 100 mg/L
MIC [11]: < 0.2 mg/L
MIC (Escherichia coli JR255): 100 mg/L (≈ 238 µM)
MIC [12, 20]: 50 mg/L (≈ 119 µM)
MIC [13, 25]: 6.25 mg/L (≈ 14.9 µM)
MIC [14, 22]: 6.25 mg/L (≈ 14.9 µM)
antibacterial activity compared to dibekacin (DKB) [17]: same or more active
MIC ([15]; A3, 18 h): 3.13 mg/L (≈ 7.46 µM)
MIC [16]: 25 mg/L (≈ 59.6 µM)

C[C@@H]1C[C@H](N)[C@@H](O)[C@@H](O[C@@H]2[C@@H](O)[C@H](O[C@H]3O[C@H](CN)CC[C@H]3N)[C@@H](N)C[C@H]2NC(=O)[C@@H](O)CCN)O1 [AHB-4",6"-DDKB, 1-N-(L-4-amino-2-hydroxybutyryl)-4",6"-dideoxydibekacin]
MIC [1, 21]: 12.5 mg/L (≈ 24 µM)
MIC ([2]; H11, 18 h): 50 mg/L (≈ 96 µM)
MIC [3]: 1.56 mg/L (≈ 3 µM)
MIC ([4]; 18 h): 3.13 mg/L (≈ 6.01 µM)
MIC [5]: < 0.2 mg/L
MIC [6]: 3.13 mg/L (≈ 6.01 µM)
MIC (Sarcina lutea PCI 1001; PCI1001, 18 h): 3.13 mg/L (≈ 6.01 µM)
MIC ([7]; ATCC607, 18 h): 0.39 mg/L (≈ 0.749 µM)
oto-toxicity (oto-toxicity): low oto-toxicity
MIC (Proteus rettgeri GN466; GN466, 18 h): 3.13 mg/L (≈ 6.01 µM)
MIC [8]: < 0.2 mg/L
MIC ([10]; PST1, nutrient agar, 37° C., 18 hours, read-out: MIC): 25 mg/L (≈ 48 µM)
MIC [11]: < 0.2 mg/L
MIC (Escherichia coli JR255): 1.56 mg/L (≈ 3 µM)
MIC [12, 20]: 6.25 mg/L (≈ 12 µM)
MIC ([13]; ATCC10702, 18 h): 1.56 mg/L (≈ 3 µM)
MIC ([14]; 18 h): 6.25 mg/L (≈ 12 µM)
MIC ([15]; A3, 18 h): 1.56 mg/L (≈ 3 µM)
MIC [16]: 0.78 mg/L (≈ 1.5 µM)

C[C@H]1O[C@H](O[C@@H]2[C@@H](O)[C@H](O[C@H]3O[C@H](CN)CC[C@H]3N)[C@@H](N)C[C@H]2N)[C@H](O)[C@@H](N)[C@@H]1O [6"-DDKB, 6"-deoxydibekacin]
MIC ([1]; B13, 18 h): 50 mg/L (≈ 115 µM)
MIC [2, 18]: 12.5 mg/L (≈ 28.7 µM)
MIC [3]: 1.56 mg/L (≈ 3.58 µM)
MIC ([4]; 18 h): 100 mg/L (≈ 230 µM)
MIC [5]: < 0.2 mg/L
MIC [6]: 3.13 mg/L (≈ 7.19 µM)
MIC (Sarcina lutea PCI 1001; [23]): 25 mg/L (≈ 57.4 µM)
MIC ([7]; ATCC607, 18 h): 0.78 mg/L (≈ 1.79 µM)
oto-toxicity (oto-toxicity): low oto-toxicity
MIC (Proteus rettgeri GN466; GN466, 18 h): 3.13 mg/L (≈ 7.19 µM)
MIC [8]: < 0.2 mg/L
MIC ([10]; PST1, 18 h): > 100 mg/L
MIC [11]: < 0.2 mg/L
MIC (Escherichia coli JR255): > 100 mg/L
MIC [12, 24]: 25 mg/L (≈ 57.4 µM)
MIC [13, 25]: 6.25 mg/L (≈ 14.4 µM)
MIC ([14]; 18 h): 3.13 mg/L (≈ 7.19 µM)
antibacterial activity compared to dibekacin (DKB) [17]: same or more active
MIC ([15]; A3, 18 h): 1.56 mg/L (≈ 3.58 µM)
MIC [16]: 25 mg/L (≈ 57.4 µM)
